From patent publication US9605002B2, “5,5-heteroaromatic anti-infective compounds” (priority 2012, dated 2017) come the findings set out here.

≈ marks a conversion by molar mass, not a printed value. Where “and” joins values, the source holds several entries; their conditions need not be identical. Identical values can stand only once.

Series [1] relates to Drug sensitive Mtb clinical strain #2. Nature of the series: MIC against clinical Mtb strains. The series is classed as cell-based. Particulars: Mycobacterium tuberculosis, 7H9/glucose/glycerol/BSA/0.05% Tween 80, average of three.
In series [2] the test system is Drug sensitive Mtb clinical strain #1. Nature of the series: MIC against clinical Mtb strains. The series is classed as cell-based. Particulars: Mycobacterium tuberculosis, 7H9/glucose/glycerol/BSA/0.05% Tween 80, average of three.
Series [3] deals with M. tuberculosis (Mtb) H37Rv. Nature of the series: Microplate Alamar Blue Assay (MABA), 7H12 media, replicating Mtb. The series is classed as cell-based. Particulars: Mycobacterium tuberculosis, 7H12 media (no glycerol), read-out: 7H12 media: Replicating H37Rv Mtb: MIC 90.
Series [4] has as its system M. tuberculosis (Mtb) H37Rv. Nature of the series: Microplate Alamar Blue Assay (MABA), GAS media, replicating Mtb. Particulars: for MIC90: Mycobacterium tuberculosis, GAS (glycerol-alanine-salt) media, replicating H37Rv, read-out: GAS media: replicating H37Rv Mtb: MIC 90. It counts as cell-based, Mycobacterium tuberculosis. A general note: The colour change of resazurin is a common sign of viable cells or microbes.

The subject of series [5] is VERO kidney epithelial cells. Nature of the series: VERO toxicity assessment. Conditions: for IC50: Chlorocebus sabaeus, Vero, read-out: VERO: IC50.

One may read the IC50 as the concentration that inhibits the measured activity by half. For `Cc1cn2c(C(=O)NCc3ccc(Oc4ccc(F)cc4)cc3)c(C)nc2s1` [ND-010081], the MIC90 in series [1] was < 0.025 µg/mL and < 0.01 µM; in series [2], < 0.01 µM and < 0.025 µg/mL; in series [3] it was less than 2 µM; in series [4], less than 2 µM. Moreover, the “in vitro activity against H37Rv TB” value in series [4] (statement in words, medium not stated) is reported as “comparable to the current clinical candidates”. In addition, in series [5], the IC50 lay within 2 to 10 µM. Moreover, the therapeutic window result in series [5] (statement in words) is “sufficient therapeutic window for in vivo treatment”.
In the case of `O=[N+]([O-])c1cn2c(n1)OC[C@@H](OCc1ccc(OC(F)(F)F)cc1)C2` [PA-824, reference compound], the MIC90 in series [1] is > 13.9 µM and > 5 µg/mL; in series [2], 0.45 µM to 0.86 µM and 0.16 µg/mL to 0.31 µg/mL.
For the compound `COc1cc(CNC(=O)c2c(C)nc3sc(C)cn23)ccn1` [ND-020017], the results for the MIC90 in series [3] and in series [4] were 2 to 10 µM (≈ 0.633 to 3.16 µg/mL) and less than 2 µM, respectively. Besides, in series [5], the IC50 was less than 32 µM.
For `Cc1cn2c(C(=O)NCc3cc(F)cc(F)c3)c(C)nc2s1` [ND-020004] the same measures were less than 2 µM, less than 2 µM and less than 32 µM.
On to `Cc1cn2c(C(=O)NCc3cccc(N4CCCC4)c3)c(C)nc2s1` [ND-020073], for which the MIC90 in series [3] and in series [4] was less than 2 µM each time. In addition, in series [5], the IC50 is less than 32 µM.
